Test results published in paper PMC10141604, “Small-Molecule Inhibition of Androgen Receptor Dimerization as a Strategy against Prostate Cancer” (ACS Central Science, 2023).

Key:
[1] = target: T1, AR LBD (Homo sapiens, UniProt P10275); experiment: Biolayer interferometry (BLI) binding to purified AR LBD
T1 construct: The AR LBD (663-919) was fused into the pET50b vector with Nus-tag; Nus-tag (cleaved yes); made in house; host or cells: E. coli BL21 (DE3)
Protocol: in 4 L LB media at 37°C until OD600 arrived to 0.6, then supplemented with 0.5 mM Isopropyl β-D-1-Thiogalactopyranoside (IPTG) and 20 μM DHT. After incubated at 16 °C for 16-18 h, the cells were collected by centrifugation at 3,500 × g for 0.5 h. The cell mass was resuspended in Lysis buffer (20 mM Tris -HCL pH 7.4, 5 mM imidazole,150 mM NaCl, 10% Glycerol, 2 mM Dithiothreitol (DTT) and 10 μM DHT) and lysed at 800 bar for at least 5 cycles. The lysis was centrifugated at 14,000 × g for 0.5 h, and the supernatant was loaded to HisTrap TM […] HP column (#17524802, GE Healthcare), followed by washing and eluting steps using 65 mM imidazole and 300 mM imidazole, respectively.
The elution from Ni-NTA were cut by HRV-3C protease, and further purified by […]
The purified AR LBD protein was biotinylated using EZ-Link™ Sulfo-NHS-LC-LC-Biotin (#A35358, ThermoFisher) in 500 μL phosphate -buffered saline with 0.02% Tween -20 (v/v, PBST) buffer for 2 h at 4 °C. […] The kinetics of the AR LBD and M17-B15 association was evaluated by soaking the AR LBD-loaded sensors into wells containing various concentrations of M17 -B15 (6.25, 12.5, 25, 50, 100 μM) for 60 s, followed by dissociation of M17 -B15 by soaking the sensors in the PBST buffer for 60 s. The kinetics values were calculated by fitting the kinetic data based on a 1:1 binding model using Forté Bio data analysis (v.11.1) software .

[2] = target: T2, AR LBD dimerization (Homo sapiens, UniProt P10275); experiment: Acceptor photobleaching FRET microscopy assay in HEK293T cells; assay type: cell-based; settings: 10 μM, 10 nM DHT
T2 construct: LBD residues (613 -920); expressed in transfected cells; host or cells: HEK293T
T2 sequence (P10275 613-920): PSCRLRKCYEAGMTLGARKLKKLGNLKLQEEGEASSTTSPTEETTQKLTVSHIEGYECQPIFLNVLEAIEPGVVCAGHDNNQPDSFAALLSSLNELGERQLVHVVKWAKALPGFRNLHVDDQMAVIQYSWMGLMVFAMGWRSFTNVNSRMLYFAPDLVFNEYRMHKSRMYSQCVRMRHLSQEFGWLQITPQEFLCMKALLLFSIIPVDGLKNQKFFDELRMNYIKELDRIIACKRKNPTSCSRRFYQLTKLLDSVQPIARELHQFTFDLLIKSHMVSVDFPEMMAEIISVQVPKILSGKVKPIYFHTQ
Protocol: (22.86 nM - 50 μM). After another 24 h incubation, the luciferase activities were determined by the Dual -Glo Luciferase system (#E1910, Promega) according to the […]
Acceptor Photobleaching Fluorescence Resonance Energy Transfer (FRET) […]
The pCMV-cyan fluorescent protein (CFP, #D2623) and pCMV -yellow fluorescent protein (YFP, #D2716) plasmids were purchased from Beyotime Biotechnology. We constructed pCMV -YFP-(AR LBD) and pCMV -(AR LBD)-CFP by cloning human AR LBD residues (613 -920) into the fluorescent protein vector using seamless cloning kit (#C112-01, CloneExpress II, Vazyme). HEK293T (1× 10^5 cells/well) cells were cultured in 5% CSS DMEM media in 12-well plate with glass coverslips. The next day, ce lls were transfected with 400 ng pCMV -YFP-(AR LBD), 400 ng pCMV -(AR LBD) -CFP together with HG -Trans Gene TM transfection reagent (#TG-10012, Health & Gene™). Free YFP and CFP proteins were transfected together as control. […]
The FRET assay was then tested by Olympus FV1000 equipped with a UPlanSApo 60× /1.35 NA oil objective. CFP was detected using 405 nm excitation while YFP was excited using 515 nm at moderate laser power, and the emission was detected using a 480-495 nm bandpass emission filter and 535-565 nm bandpass emission filter, respectively.
The first pair of CFPbefore and YFPbefore was collected. […] The apparent FRET efficiency was calculated after background […]

T1 sequence (P10275 663-919): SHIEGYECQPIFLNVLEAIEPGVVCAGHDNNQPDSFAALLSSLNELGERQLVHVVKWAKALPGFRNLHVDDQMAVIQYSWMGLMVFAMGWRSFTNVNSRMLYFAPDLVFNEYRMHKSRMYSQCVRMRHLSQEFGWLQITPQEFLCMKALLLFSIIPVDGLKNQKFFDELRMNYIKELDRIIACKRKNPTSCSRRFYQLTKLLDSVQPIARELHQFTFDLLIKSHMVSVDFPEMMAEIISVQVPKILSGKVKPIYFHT

Kd ([1]; 1:1 binding model, read-out: equilibrium dissociation constant (KD)): 13.2 µM
koff ([1]; read-out: Kd (dissociation rate)): 0.033 s⁻¹
FRET efficiency (AR LBD dimerization) [2]: lower FRET efficiency
SMILES: CC(=O)Cc1nsc(NC(=O)c2cc(-c3cccc(C(F)(F)F)c3)oc2C)n1 [Compound M17-B15]
